Data reported in PubChem BioAssay (NCI).
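Exposure lasted 48 hours, with cells grown in 96-well plates and compounds tested at five concentrations. TGI denotes the concentration required for complete inhibition of growth.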

Experiments:
Test in all cases: NCI tumour cell line growth inhibition, 48 h
786-0 renal = system: 786-0 renal
A549 NSCLC = system: A549 NSCLC
ACHN renal = system: ACHN renal
CAKI-1 renal = system: CAKI-1 renal
CCRF-CEM leukemia = system: CCRF-CEM leukemia
COLO 205 colon = system: COLO 205 colon
DLD-1 colon = system: DLD-1 colon
DMS 114 small cell lung = system: DMS 114 small cell lung
DMS 273 small cell lung = system: DMS 273 small cell lung
EKVX NSCLC = system: EKVX NSCLC
HCC-2998 colon = system: HCC-2998 colon
HCT-116 colon = system: HCT-116 colon
HCT-15 colon = system: HCT-15 colon
HL-60(TB) leukemia = system: HL-60(TB) leukemia
HOP-62 NSCLC = system: HOP-62 NSCLC
HOP-92 NSCLC = system: HOP-92 NSCLC
HT29 colon = system: HT29 colon
IGROV1 ovarian = system: IGROV1 ovarian
K-562 leukemia = system: K-562 leukemia
KM12 colon = system: KM12 colon
KM20L2 colon = system: KM20L2 colon
LOX IMVI melanoma = system: LOX IMVI melanoma
LXFL 529 NSCLC = system: LXFL 529 NSCLC
M19-MEL melanoma = system: M19-MEL melanoma
MALME-3M melanoma = system: MALME-3M melanoma
MOLT-4 leukemia = system: MOLT-4 leukemia
NCI-H226 lung = system: NCI-H226 lung
NCI-H23 lung = system: NCI-H23 lung
NCI-H460 lung = system: NCI-H460 lung
NCI-H522 lung = system: NCI-H522 lung
OVCAR-3 ovarian = system: OVCAR-3 ovarian
OVCAR-5 ovarian = system: OVCAR-5 ovarian
OVCAR-8 ovarian = system: OVCAR-8 ovarian
RPMI-8226 leukemia = system: RPMI-8226 leukemia
RXF 393 renal = system: RXF 393 renal
RXF-631 renal = system: RXF-631 renal
SF-268 CNS = system: SF-268 CNS
SF-295 CNS = system: SF-295 CNS
SF-539 CNS = system: SF-539 CNS
SK-MEL-2 melanoma = system: SK-MEL-2 melanoma
SK-MEL-28 melanoma = system: SK-MEL-28 melanoma
SK-MEL-5 melanoma = system: SK-MEL-5 melanoma
SK-OV-3 ovarian = system: SK-OV-3 ovarian
SN12C renal = system: SN12C renal
SNB-19 CNS = system: SNB-19 CNS
SR leukemia = system: SR leukemia
SW-620 colon = system: SW-620 colon
TK-10 renal = system: TK-10 renal
U251 CNS = system: U251 CNS
UACC-257 melanoma = system: UACC-257 melanoma
UACC-62 melanoma = system: UACC-62 melanoma
XF 498 CNS = system: XF 498 CNS
M14 melanoma = system: M14 melanoma
OVCAR-4 ovarian = system: OVCAR-4 ovarian
SNB-75 CNS = system: SNB-75 CNS
SNB-78 CNS = system: SNB-78 CNS
UO-31 renal = system: UO-31 renal

CCC12CCCN(Cc3ccccc3)C1c1c(n(C)c3ccccc13)[C@H](C(=O)OC)C2 (stereo partly drawn)
TGI (786-0 renal): > 239 µM | TGI (A549 NSCLC): > 239 µM | TGI (ACHN renal): > 239 µM | TGI (CAKI-1 renal): > 239 µM | TGI (CCRF-CEM leukemia): > 239 µM | TGI (COLO 205 colon): > 239 µM | TGI (DLD-1 colon): > 239 µM | TGI (DMS 114 small cell lung): > 239 µM | TGI (DMS 273 small cell lung): > 239 µM | TGI (EKVX NSCLC): > 239 µM | TGI (HCC-2998 colon): > 239 µM | TGI (HCT-116 colon): > 239 µM | TGI (HCT-15 colon): > 239 µM | TGI (HL-60(TB) leukemia): > 239 µM | TGI (HOP-62 NSCLC): > 239 µM | TGI (HOP-92 NSCLC): 238 µM | TGI (HT29 colon): 142 µM | TGI (IGROV1 ovarian): > 239 µM | TGI (K-562 leukemia): > 239 µM | TGI (KM12 colon): > 239 µM | TGI (KM20L2 colon): > 239 µM | TGI (LOX IMVI melanoma): > 239 µM | TGI (LXFL 529 NSCLC): > 239 µM | TGI (M19-MEL melanoma): > 239 µM | TGI (MALME-3M melanoma): > 239 µM | TGI (MOLT-4 leukemia): > 239 µM | TGI (NCI-H226 lung): > 239 µM | TGI (NCI-H23 lung): > 239 µM | TGI (NCI-H460 lung): > 239 µM | TGI (NCI-H522 lung): > 239 µM | TGI (OVCAR-3 ovarian): > 239 µM | TGI (OVCAR-5 ovarian): > 239 µM | TGI (OVCAR-8 ovarian): > 239 µM | TGI (RPMI-8226 leukemia): > 239 µM | TGI (RXF 393 renal): > 239 µM | TGI (RXF-631 renal): > 239 µM | TGI (SF-268 CNS): > 239 µM | TGI (SF-295 CNS): > 239 µM | TGI (SF-539 CNS): > 239 µM | TGI (SK-MEL-2 melanoma): > 239 µM | TGI (SK-MEL-28 melanoma): > 239 µM | TGI (SK-MEL-5 melanoma): > 239 µM | TGI (SK-OV-3 ovarian): > 239 µM | TGI (SN12C renal): > 239 µM | TGI (SNB-19 CNS): > 239 µM | TGI (SR leukemia): > 239 µM | TGI (SW-620 colon): > 239 µM | TGI (TK-10 renal): > 239 µM | TGI (U251 CNS): > 239 µM | TGI (UACC-257 melanoma): > 239 µM | TGI (UACC-62 melanoma): > 239 µM | TGI (XF 498 CNS): > 239 µM

C/C(O)=C/c1nc2ccccc2[nH]1
TGI (786-0 renal): > 100 µM | TGI (A549 NSCLC): > 100 µM | TGI (ACHN renal): > 100 µM | TGI (CAKI-1 renal): > 100 µM | TGI (CCRF-CEM leukemia): > 100 µM | TGI (COLO 205 colon): > 100 µM | TGI (DLD-1 colon): > 100 µM | TGI (EKVX NSCLC): > 100 µM | TGI (HCC-2998 colon): > 100 µM | TGI (HCT-116 colon): > 100 µM | TGI (HCT-15 colon): > 100 µM | TGI (HL-60(TB) leukemia): > 100 µM | TGI (HT29 colon): > 100 µM | TGI (IGROV1 ovarian): > 100 µM | TGI (K-562 leukemia): > 100 µM | TGI (KM12 colon): > 100 µM | TGI (KM20L2 colon): > 100 µM | TGI (LOX IMVI melanoma): > 100 µM | TGI (LXFL 529 NSCLC): > 100 µM | TGI (M14 melanoma): > 100 µM | TGI (M19-MEL melanoma): > 100 µM | TGI (MALME-3M melanoma): > 100 µM | TGI (MOLT-4 leukemia): > 100 µM | TGI (NCI-H226 lung): > 100 µM | TGI (NCI-H23 lung): > 100 µM | TGI (NCI-H460 lung): > 100 µM | TGI (NCI-H522 lung): > 100 µM | TGI (OVCAR-3 ovarian): > 100 µM | TGI (OVCAR-4 ovarian): > 100 µM | TGI (OVCAR-5 ovarian): > 100 µM | TGI (OVCAR-8 ovarian): > 100 µM | TGI (RPMI-8226 leukemia): > 100 µM | TGI (RXF 393 renal): > 100 µM | TGI (RXF-631 renal): > 100 µM | TGI (SF-268 CNS): > 100 µM | TGI (SF-295 CNS): > 100 µM | TGI (SF-539 CNS): > 100 µM | TGI (SK-MEL-2 melanoma): > 100 µM | TGI (SK-MEL-28 melanoma): > 100 µM | TGI (SK-MEL-5 melanoma): > 100 µM | TGI (SN12C renal): > 100 µM | TGI (SNB-19 CNS): > 100 µM | TGI (SNB-75 CNS): 78.8 µM | TGI (SNB-78 CNS): > 100 µM | TGI (SR leukemia): > 100 µM | TGI (SW-620 colon): > 100 µM | TGI (U251 CNS): > 100 µM | TGI (UACC-257 melanoma): > 100 µM | TGI (UACC-62 melanoma): > 100 µM | TGI (UO-31 renal): > 100 µM | TGI (XF 498 CNS): > 100 µM
